From US12077503B2, “Substituted cyclic amides and their use as herbicides” (FMC CORPORATION, priority 2015, dated 2024)

Legend:
Format in all cases: in vivo
Kochia (Kochia scoparia) [1] = assay: Test A preemergence; settings: for Plant response rating, Kochia: 125 g ai/ha, preemergence, 0 to 100 scale (0 no effect, 100 complete control); for Kochia plant response rating (0 to 100 scale): Preemergence, 500 g ai/ha, 0 is no effect, 100 is complete control
Description: (§1) Seeds of plant species selected from barnyardgrass (Echinochloa crus-galli), Kochia (Kochia scoparia), ragweed (common ragweed, Ambrosia elatior), ryegrass, Italian (Italian ryegrass, Lolium multiflorum), crabgrass, large (Digitaria sanguinalis), giant foxtail (Setaria faberii), green foxtail (Setaria viridis), morningglory (Ipomoea spp.), pigweed (Amaranthus retroflexus), velvetleaf (Abutilon theophrasti), wheat (Triticum aestivum), and corn (Zea mays) were planted into a blend of loam soil and sand and treated preemergence with a directed soil spray using test chemicals formulated in anon-phytotoxic solvent mixture which included a surfactant.
(§2) At the same time, plants selected from these crop and weed species and also blackgrass (Alopecurus myosuroides), and Galium (catchweed bedstraw, Galium aparine) were planted in pots containing the same blend of loam soil and sand and treated with postemergence applications of test chemicals formulated in the same manner. Plants ranged in height from 2 to 10 cm and were in the one- to two-leaf stage for the postemergence treatment. Treated plants and untreated controls were maintained in a greenhouse for approximately 10 d, after which time all treated plants were compared to untreated controls and visually evaluated for injury. Plant response ratings, summarized in Table A, are based on a 0 to 100 scale where 0 is no effect and 100 is complete control. A dash (-) response means no test result.

[2] = test system: barnyardgrass (Echinochloa crus-galli); assay: Test A preemergence; settings: for Plant response rating, Barnyardgrass: 125 g ai/ha, preemergence, 0 to 100 scale (0 no effect, 100 complete control); for Barnyardgrass plant response rating (0 to 100 scale): Preemergence, 500 g ai/ha, 0 is no effect, 100 is complete control
Description: as §1, §2

[3] = test system: giant foxtail (Setaria faberii); assay: Test A preemergence; settings: for Plant response rating, Foxtail, Giant: 125 g ai/ha, preemergence, 0 to 100 scale (0 no effect, 100 complete control); for Foxtail, Giant plant response rating (0 to 100 scale): Preemergence, 500 g ai/ha, 0 is no effect, 100 is complete control
Description: as §1, §2

[4] = test system: pigweed (Amaranthus retroflexus); assay: Test A preemergence; settings: for Plant response rating, Pigweed: 125 g ai/ha, preemergence, 0 to 100 scale (0 no effect, 100 complete control); for Pigweed plant response rating (0 to 100 scale): Preemergence, 500 g ai/ha, 0 is no effect, 100 is complete control
Description: as §1, §2

[5] = test system: ragweed (common ragweed, Ambrosia elatior); assay: Test A preemergence; settings: for Plant response rating, Ragweed: 125 g ai/ha, preemergence, 0 to 100 scale (0 no effect, 100 complete control); for Ragweed plant response rating (0 to 100 scale): Preemergence, 500 g ai/ha, 0 is no effect, 100 is complete control
Description: as §1, §2

[6] = test system: ryegrass, Italian (Italian ryegrass, Lolium multiflorum); assay: Test A preemergence; settings: for Plant response rating, Ryegrass, Italian: 125 g ai/ha, preemergence, 0 to 100 scale (0 no effect, 100 complete control); for Ryegrass, Italian plant response rating (0 to 100 scale): Preemergence, 500 g ai/ha, 0 is no effect, 100 is complete control
Description: as §1, §2

[7] = test system: Galium (catchweed bedstraw, Galium aparine); assay: Test A postemergence
Description: as §1, §2

Kochia (Kochia scoparia) [8] = assay: Test A postemergence
Description: as §1, §2

[9] = test system: barnyardgrass (Echinochloa crus-galli); assay: Test A postemergence
Description: as §1, §2

[10] = test system: blackgrass (Alopecurus myosuroides); assay: Test A postemergence
Description: as §1, §2

corn (Zea mays) = assay: Test A postemergence
Description: as §1, §2

[11] = test system: giant foxtail (Setaria faberii); assay: Test A postemergence
Description: as §1, §2

[12] = test system: pigweed (Amaranthus retroflexus); assay: Test A postemergence
Description: as §1, §2

[13] = test system: ragweed (common ragweed, Ambrosia elatior); assay: Test A postemergence
Description: as §1, §2

[14] = test system: ryegrass, Italian (Italian ryegrass, Lolium multiflorum); assay: Test A postemergence
Description: as §1, §2

[15] = test system: wheat (Triticum aestivum); assay: Test A postemergence
Description: as §1, §2

[16] = test system: barnyardgrass (Echinochloa crus-galli); assay: Test B flooded paddy test; settings: Flood, 250 g ai/ha; 0 to 100 scale where 0 is no effect and 100 is complete control; 13 to 15 d
Experimental: (§3) Plant species in the flooded paddy test selected from rice (Oryra sativa), sedge, umbrella (small-flower umbrella sedge, Cyperus difformis), ducksalad (Heteranthera limosa), and barnyardgrass (Echinochloa crus-galli) were grown to the 2-leaf stage for testing. At time of treatment, test pots were flooded to 3 cm above the soil surface, treated by application of test compounds directly to the paddy water, and then maintained at that water depth for the duration of the test. Treated plants and controls were maintained in a greenhouse for 13 to 15 d, after which time all species were compared to controls and visually evaluated. Plant response ratings, summarized in Table B, are based on a scale of 0 to 100 where 0 is no effect and 100 is complete control. A dash (-) response means no test result.

[17] = test system: ducksalad (Heteranthera limosa); assay: Test B flooded paddy test; settings: Flood, 250 g ai/ha; 0 to 100 scale where 0 is no effect and 100 is complete control; 13 to 15 d
Experimental: as §3

rice (Oryra sativa) = assay: Test B flooded paddy test; settings: Flood, 250 g ai/ha; 0 to 100 scale where 0 is no effect and 100 is complete control; 13 to 15 d
Experimental: as §3

[18] = test system: sedge, umbrella (small-flower umbrella sedge, Cyperus difformis); assay: Test B flooded paddy test; settings: Flood, 250 g ai/ha; 0 to 100 scale where 0 is no effect and 100 is complete control; 13 to 15 d
Experimental: as §3

[19] = 500 g ai/ha, postemergence, 0 to 100 scale, 0 no effect, 100 complete control
[20] = Postemergence, 125 g ai/ha, visual injury, 0 to 100 scale (0 no effect, 100 complete control), approx. 10 d

| Structure (SMILES) | Plant response rating, Kochia (Kochia (Kochia scoparia) [1]) | Kochia plant response rating (0 to 100 scale) (Kochia (Kochia scoparia) [1]) | Plant response rating, Barnyardgrass [2] | Barnyardgrass plant response rating (0 to 100 scale) [2] | Plant response rating, Foxtail, Giant [3] | Foxtail, Giant plant response rating (0 to 100 scale) [3] | Plant response rating, Pigweed [4] | Pigweed plant response rating (0 to 100 scale) [4] | Plant response rating, Ragweed [5] | Ragweed plant response rating (0 to 100 scale) [5] | Plant response rating, Ryegrass, Italian [6] | Ryegrass, Italian plant response rating (0 to 100 scale) [6] | Plant response rating, Galium [7, 19] | Plant response rating, Galium [7, 20] | Plant response rating, Kochia (Kochia (Kochia scoparia) [8]; [19]) | Plant response rating, Kochia (Kochia (Kochia scoparia) [8]; [20]) | Plant response rating, Barnyardgrass [9, 19] | Plant response rating, Barnyardgrass [9, 20] | Plant response rating, Blackgrass [10, 19] | Plant response rating, Blackgrass [10, 20] | also measured |
| --- | --- | --- | --- | --- | --- | --- | --- | --- | --- | --- | --- | --- | --- | --- | --- | --- | --- | --- | --- | --- | --- |
| O=C1NCC(c2cccc(F)c2)C1C(=O)Nc1ccccc1C(F)(F)F (racemic) [Compound 376] | 0 | 0 | 90 | 90 | 90 | 90 | 0 | 0 | 0 | 0 | 0 | 20 | 30 | 30 | 20 | 0 | 90 | 90 | 40 | 0 | Plant response rating, Corn (corn (Zea mays); [19]): 30; Plant response rating, Corn (corn (Zea mays); [20]): 0; Plant response rating, Foxtail, Giant [11, 19]: 90; Plant response rating, Foxtail, Giant [11, 20]: 90; Plant response rating, Pigweed [12, 19]: 0; Plant response rating, Pigweed [12, 20]: 0; Plant response rating, Ragweed [13, 19]: 20; Plant response rating, Ragweed [13, 20]: 0; Plant response rating, Ryegrass, Italian [14, 19]: 20; Plant response rating, Ryegrass, Italian [14, 20]: 0; Plant response rating, Wheat [15, 19]: 0; Plant response rating, Wheat [15, 20]: 0; Plant response rating, Barnyardgrass [16]: 70; Plant response rating, Ducksalad [17]: 100; Plant response rating, Rice (rice (Oryra sativa)): 0; Plant response rating, Sedge, Umbrella [18]: 0 |
| O=C1NCC(c2ccccc2-c2ccccc2)C1C(=O)Nc1ccccc1F (racemic) [Compound 381] | 0 | 0 | 0 | 20 | 0 | 30 | 0 | 0 | 0 | 0 | 0 | 0 | 0 | 0 | 0 | 0 | 30 | 0 | 0 | 0 | Plant response rating, Corn (corn (Zea mays); [19]): 0; Plant response rating, Corn (corn (Zea mays); [20]): 0; Plant response rating, Foxtail, Giant [11, 19]: 20; Plant response rating, Foxtail, Giant [11, 20]: 0; Plant response rating, Pigweed [12, 19]: 0; Plant response rating, Pigweed [12, 20]: 0; Plant response rating, Ragweed [13, 19]: 0; Plant response rating, Ragweed [13, 20]: 0; Plant response rating, Ryegrass, Italian [14, 19]: 0; Plant response rating, Ryegrass, Italian [14, 20]: 0; Plant response rating, Wheat [15, 19]: 0; Plant response rating, Wheat [15, 20]: 0; Plant response rating, Barnyardgrass [16]: 0; Plant response rating, Ducksalad [17]: 0; Plant response rating, Rice (rice (Oryra sativa)): 0; Plant response rating, Sedge, Umbrella [18]: 0 |
| O=C1NCC(c2ccccc2-c2ccccc2)C1C(=O)Nc1ccc(F)c(F)c1F (racemic) [Compound 382] | 0 | 0 | 0 | 50 | 0 | 30 | 0 | 0 | 0 | 0 | 0 | 0 | 0 | 0 | 0 | 0 | 20 | 0 | 0 | 0 | Plant response rating, Corn (corn (Zea mays); [19]): 0; Plant response rating, Corn (corn (Zea mays); [20]): 0; Plant response rating, Foxtail, Giant [11, 19]: 20; Plant response rating, Foxtail, Giant [11, 20]: 0; Plant response rating, Pigweed [12, 19]: 0; Plant response rating, Pigweed [12, 20]: 0; Plant response rating, Ragweed [13, 19]: 0; Plant response rating, Ragweed [13, 20]: 0; Plant response rating, Ryegrass, Italian [14, 19]: 0; Plant response rating, Ryegrass, Italian [14, 20]: 0; Plant response rating, Wheat [15, 19]: 0; Plant response rating, Wheat [15, 20]: 0; Plant response rating, Barnyardgrass [16]: 0; Plant response rating, Ducksalad [17]: 0; Plant response rating, Rice (rice (Oryra sativa)): 0; Plant response rating, Sedge, Umbrella [18]: 0 |
